Experimental data from US9695155B2, “Herbicidal substituted pyrimidinyloxy benzene compounds” (E. I. DU PONT DE NEMOURS AND COMPANY, priority 2013, dated 2017).

Columns and labels:
wheat = experiment: Test A postemergence; format: in vivo, Triticum aestivum; details: Triticum aestivum, post-emergence, 240 h
Procedure, shortened: (§1)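 Visual 0–100 rating (100 = complete control) taken about 10 d post-treatment relative to untreated checks. Preemergence: directed soil spray on sown loam/sand pots. Postemergence: seedlings 2–10 cm, 1–2 leaf. Non-phytotoxic solvent formulation with surfactant.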

velvetleaf [1] = experiment: Test A postemergence; format: in vivo, Abutilon theophrasti; details: Abutilon theophrasti, post-emergence, 240 h
Procedure, shortened: as §1

sedge, umbrella = experiment: Test B flooded paddy test; format: in vivo, Cyperus difformis; details: Cyperus difformis, Flood, 250 g ai/ha; 0 to 100 scale where 0 is no effect and 100 is complete control; read-out: Plant response rating, Sedge, Umbrella
Procedure, shortened: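 Plants were grown to the 2-leaf stage, then pots were flooded to 3 cm above the soil and compounds were applied directly into the paddy water. That depth was held throughout, and after 13 to 15 days in the greenhouse injury was rated visually against controls on a 0–100 scale (0 no effect, 100 complete control).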

giant foxtail [2] = experiment: Test A preemergence; format: in vivo, Setaria faberii; details: Setaria faberi, pre-emergence, 240 h, read-out: Foxtail, Giant plant response rating
Procedure, shortened: as §1

velvetleaf [3] = experiment: Test C preemergence; format: in vivo, Abutilon theophrasti; details: Abutilon theophrasti, pre-emergence
From the text: (§2) Seeds of plant species selected from blackgrass (Alopecurus myosuroides), Italian ryegrass (Lolium multiflorum), wheat, winter (winter wheat, Triticum aestivum), galium (catchweed bedstraw, Galium aparine), corn (Zea mays), large (Lg) crabgrass (Digitaria sanguinalis), giant foxtail (Setaria faberii), johnsongrass (Sorghum halepense), lambsquarters (Chenopodium album), morningglory (Ipomoea coccinea), yellow nutsedge (Cyperus esculentus), pigweed (Amaranthus retroflexus), ragweed (common ragweed, Ambrosia elatior), soybean (Glycine max), barnyardgrass (Echinochloa crus-galli), oilseed rape (Brassica napus), waterhemp (common waterhemp, Amaranthus rudis), kochia (Kochia scoparia), wild oat (Avena fatua), surinam grass (Brachiaria decumbens), foxtail, green (green foxtail, Setaria viridis), goosegrass (Eleusine indica), bromegrass, downy (downy bromegrass, Bromus tectorum), nightshade (eastern black nightshade, Solanum ptycanthum), cocklebur (common cocklebur, Xanthium strumarium), cupgrass, woolly (woolly cupgrass, Eriochloa villosa), bermudagrass (Cynodon dactylon), sunflower, (common oilseed sunflower, Helianthus annuus), Russian thistle (Salsola kali), and velvetleaf (Abutilon theophrasti) were planted into a blend of loam soil and sand and treated preemergence with test chemicals formulated in a non-phytotoxic solvent mixture which included a surfactant.
(§3) At the same time, plants selected from these crop and weed species and also barley, winter (winter barley, Hordeum vulgare), windgrass (Apera spica-venti), chickweed (common chickweed, Stellaria media), deadnettle (henbit deadnettle, Lamium amplexicaule), and canarygrass (littleseed canarygrass, Phalaris minor) were planted in pots containing Redi-Earth® planting medium (Scotts Company, 14111 Scottslawn Road, Marysville, Ohio 43041) comprising spaghnum peat moss, vermiculite, wetting agent and starter nutrients and treated with postemergence applications of test chemicals formulated in the same manner. Plants ranged in height from 2 to 18 cm (1- to 4-leaf stage) for postemergence treatments. Treated plants and controls were maintained in a greenhouse for 13 to 15 days, after which time all species were compared to controls and visually evaluated. Plant response ratings, summarized in Table C, are based on a scale of 0 to 100 where 0 is no effect and 100 is complete control. A dash (-) response means no test result.

morningglory [4] = experiment: Test C postemergence; format: in vivo, Ipomoea coccinea; details: Ipomoea, post-emergence
Procedure, shortened: (§4)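 Preemergence: seeds sown in a loam soil–sand blend and sprayed with test chemical in a non-phytotoxic solvent mixture containing surfactant. Postemergence: plants at 2 to 18 cm (1- to 4-leaf stage) in peat-based medium, treated with the same formulation. Greenhouse 13 to 15 days, then visual rating 0 (no effect) to 100 (complete control).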

galium = experiment: Test C postemergence; format: in vivo, Galium aparine; details: Galium, post-emergence
Procedure, shortened: as §4

yellow nutsedge = experiment: Test C postemergence; format: in vivo, Cyperus esculentus; details: Cyperus, post-emergence
Procedure, shortened: as §4

corn = experiment: Test C preemergence; format: in vivo, Zea mays; details: Zea mays, pre-emergence
Procedure, shortened: as §4

morningglory [5] = experiment: Test C preemergence; format: in vivo, Ipomoea coccinea; details: Ipomoea, pre-emergence
From the text: as §2, §3

giant foxtail [6] = experiment: Test C postemergence; format: in vivo, Setaria faberii; details: Setaria faberi, post-emergence
Procedure, shortened: as §4

ragweed = experiment: Test C postemergence; format: in vivo, Ambrosia elatior; details: Ambrosia artemisiifolia, post-emergence
Procedure, shortened: as §4

barnyardgrass = experiment: Test A postemergence; format: in vivo, Echinochloa crus-galli; details: Echinochloa crus-galli, post-emergence, 240 h
Procedure, shortened: as §1

wheat, winter = experiment: Test C postemergence; format: in vivo, Triticum aestivum; details: Triticum aestivum, post-emergence
Procedure, shortened: as §4

## Clc1cnc(Oc2ccccc2-n2cc(Br)cn2)nc1 [Compound 7, 2-[2-(4-bromo-1H-pyrazol-1-yl)phenoxy]-5-chloropyrimidine]
wheat; 125 g ai/ha, 0 to 100 scale where 0 is no effect and 100 is complete control, read-out: Plant response rating, Wheat
  plant injury at 125 g/ha: 30%
wheat; 500 g ai/ha, 0 to 100 scale, 0 no effect, 100 complete control, read-out: Plant response rating Wheat
  plant injury at 500 g/ha: 50%
Velvetleaf [1]; 125 g ai/ha, 0 to 100 scale where 0 is no effect and 100 is complete control, read-out: Plant response rating, Velvetleaf
  pest or weed control at 125 g/ha: 100%
Velvetleaf [1]; 500 g ai/ha, 0 to 100 scale, 0 no effect, 100 complete control, read-out: Plant response rating Velvetleaf
  pest or weed control at 500 g/ha: 100%
sedge, umbrella
  pest or weed control at 250 g/ha: 75%
Giant foxtail [2]; 125 g ai/ha, 0 to 100 scale where 0 is no effect and 100 is complete control
  pest or weed control at 125 g/ha: 100%
Giant foxtail [2]; 500 g ai/ha, 0 to 100 scale, 0 no effect, 100 complete control, approx. 10 days
  pest or weed control at 500 g/ha: 100%
Velvetleaf [3]; 62 g ai/ha, preemergence, scale 0 (no effect) to 100 (complete control), read-out: Velvetleaf plant response rating
  pest or weed control at 62 g/ha: 100%
Velvetleaf [3]; 125 g ai/ha, preemergence, scale 0 (no effect) to 100 (complete control), read-out: Velvetleaf plant response rating
  pest or weed control at 125 g/ha: 100%
Velvetleaf [3]; 250 g ai/ha, preemergence, scale 0 (no effect) to 100 (complete control), read-out: Velvetleaf plant response rating
  pest or weed control at 250 g/ha: 100%
Velvetleaf [3]; Preemergence, 31 g ai/ha, scale 0 to 100, 0 no effect, 100 complete control, read-out: Plant response rating, Velvetleaf
  pest or weed control at 31 g/ha: 40%
Morningglory [4]; 125 g ai/ha, postemergence, read-out: Plant response rating (0 to 100), Morningglory
  pest or weed control at 125 g/ha: 95%
Morningglory [4]; Postemergence, 31 g ai/ha, scale 0 to 100 (0 no effect, 100 complete control), 13 to 15 days, read-out: Plant response rating, Morningglory
  pest or weed control at 31 g/ha: 75%
Morningglory [4]; Postemergence, 62 g ai/ha, scale 0 to 100 (0 no effect, 100 complete control), read-out: Plant response rating, Morningglory
  pest or weed control at 62 g/ha: 80%
galium; 125 g ai/ha, postemergence, read-out: Plant response rating (0 to 100), Galium
  pest or weed control at 125 g/ha: 90%
galium; 250 g ai/ha, postemergence, read-out: Plant response rating (0 to 100), Galium
  pest or weed control at 250 g/ha: 98%
galium; Postemergence, 31 g ai/ha, scale 0 to 100 (0 no effect, 100 complete control), 13 to 15 days, read-out: Plant response rating, Galium
  pest or weed control at 31 g/ha: 65%
galium; Postemergence, 62 g ai/ha, scale 0 to 100 (0 no effect, 100 complete control), read-out: Plant response rating, Galium
  pest or weed control at 62 g/ha: 80%
Yellow nutsedge; 125 g ai/ha, postemergence, read-out: Plant response rating (0 to 100), Nutsedge, Yellow
  pest or weed control at 125 g/ha: 15%
Yellow nutsedge; 250 g ai/ha, postemergence, read-out: Plant response rating (0 to 100), Nutsedge, Yellow
  pest or weed control at 250 g/ha: 20%
Yellow nutsedge; Postemergence, 31 g ai/ha, scale 0 to 100 (0 no effect, 100 complete control), 13 to 15 days, read-out: Plant response rating, Nutsedge, Yellow
  pest or weed control at 31 g/ha: 10%
Yellow nutsedge; Postemergence, 62 g ai/ha, scale 0 to 100 (0 no effect, 100 complete control), read-out: Plant response rating, Nutsedge, Yellow
  pest or weed control at 62 g/ha: 15%
corn; 62 g ai/ha, preemergence, scale 0 (no effect) to 100 (complete control), read-out: Corn plant response rating
  plant injury at 62 g/ha: 5%
corn; 125 g ai/ha, preemergence, scale 0 (no effect) to 100 (complete control), read-out: Corn plant response rating
  plant injury at 125 g/ha: 5%
corn; 250 g ai/ha, preemergence, scale 0 (no effect) to 100 (complete control), read-out: Corn plant response rating
  plant injury at 250 g/ha: 5%
corn; Preemergence, 31 g ai/ha, scale 0 to 100, 0 no effect, 100 complete control
  Corn plant response rating (crop injury, 0 = no effect, 100 = complete kill) at 31 g/ha: 0%
Morningglory [5]; 62 g ai/ha, preemergence, scale 0 (no effect) to 100 (complete control), read-out: Morningglory plant response rating
  pest or weed control at 62 g/ha: 0%
Morningglory [5]; 125 g ai/ha, preemergence, scale 0 (no effect) to 100 (complete control), read-out: Morningglory plant response rating
  pest or weed control at 125 g/ha: 10%
Morningglory [5]; 250 g ai/ha, preemergence, scale 0 (no effect) to 100 (complete control), read-out: Morningglory plant response rating
  pest or weed control at 250 g/ha: 40%
Morningglory [5]; Preemergence, 31 g ai/ha, scale 0 to 100, 0 no effect, 100 complete control, read-out: Plant response rating, Morningglory
  pest or weed control at 31 g/ha: 0%
Giant foxtail [6]; 125 g ai/ha, postemergence, read-out: Plant response rating (0 to 100), Foxtail, Giant
  pest or weed control at 125 g/ha: 10%
Giant foxtail [6]; 250 g ai/ha, postemergence, read-out: Plant response rating (0 to 100), Foxtail, Giant
  pest or weed control at 250 g/ha: 10%
Giant foxtail [6]; Postemergence, 31 g ai/ha, scale 0 to 100 (0 no effect, 100 complete control), 13 to 15 days, read-out: Plant response rating, Foxtail, Giant
  pest or weed control at 31 g/ha: 0%
Giant foxtail [6]; Postemergence, 62 g ai/ha, scale 0 to 100 (0 no effect, 100 complete control), read-out: Plant response rating, Foxtail, Giant
  pest or weed control at 62 g/ha: 5%
ragweed; 125 g ai/ha, postemergence, read-out: Plant response rating (0 to 100), Ragweed
  pest or weed control at 125 g/ha: 55%
ragweed; 250 g ai/ha, postemergence, read-out: Plant response rating (0 to 100), Ragweed
  pest or weed control at 250 g/ha: 60%
ragweed; Postemergence, 31 g ai/ha, scale 0 to 100 (0 no effect, 100 complete control), 13 to 15 days, read-out: Plant response rating, Ragweed
  pest or weed control at 31 g/ha: 50%
ragweed; Postemergence, 62 g ai/ha, scale 0 to 100 (0 no effect, 100 complete control), read-out: Plant response rating, Ragweed
  pest or weed control at 62 g/ha: 55%
barnyardgrass; 125 g ai/ha, 0 to 100 scale where 0 is no effect and 100 is complete control, read-out: Plant response rating, Barnyardgrass
  pest or weed control at 125 g/ha: 90%
barnyardgrass; 500 g ai/ha, 0 to 100 scale, 0 no effect, 100 complete control, read-out: Plant response rating Barnyardgrass
  pest or weed control at 500 g/ha: 100%
wheat, winter; 125 g ai/ha, postemergence, read-out: Plant response rating (0 to 100), Wheat
  plant injury at 125 g/ha: 10%
wheat, winter; 250 g ai/ha, postemergence, read-out: Plant response rating (0 to 100), Wheat
  plant injury at 250 g/ha: 15%
wheat, winter; Postemergence, 31 g ai/ha, scale 0 to 100 (0 no effect, 100 complete control), 13 to 15 days, read-out: Plant response rating, Wheat
  plant injury at 31 g/ha: 5%
wheat, winter; Postemergence, 62 g ai/ha, scale 0 to 100 (0 no effect, 100 complete control), read-out: Plant response rating, Wheat
  plant injury at 62 g/ha: 5%
